Where two headings read alike, the source gives them in different places. Each block holds one molecule with its values, some of them ahead of it.
Tests used:
Experiment in all cases: Kinase panel study
Type in all cases: biochemical
PIK3CG (p11 0 gamma) = target: T1, PIK3CG (p11 0 gamma) (Homo sapiens, UniProt P48736); conditions: for inhibition at 1 µM: 1000nM; for IC50: in vitro kinase panel, criterion of at most 2000 nM
T1 construct: purchased Thermo Fisher Scientific
Method: (§1) The Kinase panel study was entirely provided by Thermo Fisher Scientific using the two lead compounds MW01 and MW05 as well as their derivatives (MW01-E06, MW01-E10, MW01-E14, MW01-E18, MW05-E2, MW05-E3, MW05-E9 and MW05-E10. The experiment was performed using the ZLyte or Adapta protocol according to manufacturer standard operating procedures.
(§2) Based on their similar effects in our screen and molecular analysis, MW01 and MW05 were used in comparative target deconvolution studies seeking common targets despite their distinct structures. To eliminate previously identified kinases regulating NF-κB activity, such as IKK, as possible targets of MW01 and MW05, an in vitro kinase inhibition assay was performed. […] We next investigated if any of the shared kinase targets of MW01 and MW05 play a role in genotoxic stress-induced NF-κB activity and established several criteria to narrow down pathway-relevant targets. Considering the similar NF-κB inhibition phenotypes of both compounds, we hypothesized first that the target should be shared by both lead compounds. Second, based on the CaCo2 recovery values and experimental treatment concentration of 10 µM), the putative target kinase should have a low IC50 of, at most, 2000 nM for both lead compounds in the in vitro kinase panel (Fig. 2A). Based on these criteria alone, we arrived at a relatively short list of potential targets for further analysis, leaving only PIK3CG, PIK3C2G, and CLK2 (Fig. 2B). IC50 values for PIK3C2G by both lead compounds agreed best with these criteria, but RNA expression analysis indicates high tissue specificity as well as lack of expression of this kinase in our U2-OS model cell line, which we then eliminated from further analysis (Uhlén et al., 2015). […] Table 6: Percentage of inhibition of the indicated kinases by MW01 or MW05 at either 10 µM or 1 µM. n.d. = not determined.

MAP4K2 (GCK) = target: T2, MAP4K2 (GCK) (Homo sapiens, UniProt Q12851); conditions: for inhibition at 1 µM: 1000nM
T2 construct: purchased Thermo Fisher Scientific
T2 sequence (Q12851 1-820): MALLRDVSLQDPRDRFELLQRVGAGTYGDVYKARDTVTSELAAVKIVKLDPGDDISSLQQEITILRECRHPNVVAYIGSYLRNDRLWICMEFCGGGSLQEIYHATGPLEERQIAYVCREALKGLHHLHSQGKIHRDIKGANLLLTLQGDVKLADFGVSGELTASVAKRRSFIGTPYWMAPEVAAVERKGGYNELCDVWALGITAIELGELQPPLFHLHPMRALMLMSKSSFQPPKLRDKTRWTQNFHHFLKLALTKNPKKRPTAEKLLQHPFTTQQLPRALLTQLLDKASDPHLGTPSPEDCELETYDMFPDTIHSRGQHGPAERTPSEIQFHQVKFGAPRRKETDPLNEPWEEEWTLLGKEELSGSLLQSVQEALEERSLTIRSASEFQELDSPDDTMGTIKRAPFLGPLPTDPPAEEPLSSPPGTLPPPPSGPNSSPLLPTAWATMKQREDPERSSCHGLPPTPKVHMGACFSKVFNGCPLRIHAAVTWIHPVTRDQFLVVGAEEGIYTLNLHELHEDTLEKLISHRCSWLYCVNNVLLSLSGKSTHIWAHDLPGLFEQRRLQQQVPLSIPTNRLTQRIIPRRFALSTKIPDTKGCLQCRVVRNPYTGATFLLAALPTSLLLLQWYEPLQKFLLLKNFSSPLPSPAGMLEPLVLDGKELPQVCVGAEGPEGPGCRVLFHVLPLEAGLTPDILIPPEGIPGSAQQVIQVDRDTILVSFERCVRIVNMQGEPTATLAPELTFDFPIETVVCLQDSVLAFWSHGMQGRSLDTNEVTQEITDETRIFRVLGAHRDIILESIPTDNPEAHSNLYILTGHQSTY
Method: as §1, §2

IKBKB (IKK beta) = target: T3, IKBKB (IKK beta) (Homo sapiens, UniProt O14920); conditions: for inhibition at 1 µM: 1000nM
T3 construct: purchased Thermo Fisher Scientific
T3 sequence (O14920 1-756): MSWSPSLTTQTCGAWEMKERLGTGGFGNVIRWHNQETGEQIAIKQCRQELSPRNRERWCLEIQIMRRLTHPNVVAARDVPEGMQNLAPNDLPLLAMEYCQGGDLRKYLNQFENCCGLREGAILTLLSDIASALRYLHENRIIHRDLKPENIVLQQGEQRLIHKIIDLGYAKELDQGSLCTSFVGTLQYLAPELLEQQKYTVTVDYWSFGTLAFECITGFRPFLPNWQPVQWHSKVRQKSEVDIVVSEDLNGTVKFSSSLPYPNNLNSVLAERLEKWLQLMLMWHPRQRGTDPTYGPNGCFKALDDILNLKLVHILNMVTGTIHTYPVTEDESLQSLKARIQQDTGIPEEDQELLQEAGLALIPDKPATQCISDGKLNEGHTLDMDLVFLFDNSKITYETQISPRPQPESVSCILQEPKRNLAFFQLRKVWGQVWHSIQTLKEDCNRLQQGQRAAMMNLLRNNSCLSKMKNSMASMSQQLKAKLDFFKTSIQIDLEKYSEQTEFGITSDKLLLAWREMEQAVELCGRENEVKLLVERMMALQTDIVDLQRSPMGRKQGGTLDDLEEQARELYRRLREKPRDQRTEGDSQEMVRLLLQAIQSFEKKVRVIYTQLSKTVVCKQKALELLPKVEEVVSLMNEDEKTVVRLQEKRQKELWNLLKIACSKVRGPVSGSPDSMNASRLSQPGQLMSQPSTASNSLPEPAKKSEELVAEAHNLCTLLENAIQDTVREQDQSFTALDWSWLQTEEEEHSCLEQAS
Method: as §1, §2

[1] = read-out: Percentage of inhibition
[2] = 10000nM, read-out: Percentage of inhibition
[3] = PIK3CG, compound at 10µM, read-out: % of Inhibition
[4] = MAP4K2 (GCK), compound at 10µM, read-out: % of Inhibition
[5] = IKBKB (IKK beta), compound at 10µM, read-out: % of Inhibition

T1 sequence (P48736 whole entry): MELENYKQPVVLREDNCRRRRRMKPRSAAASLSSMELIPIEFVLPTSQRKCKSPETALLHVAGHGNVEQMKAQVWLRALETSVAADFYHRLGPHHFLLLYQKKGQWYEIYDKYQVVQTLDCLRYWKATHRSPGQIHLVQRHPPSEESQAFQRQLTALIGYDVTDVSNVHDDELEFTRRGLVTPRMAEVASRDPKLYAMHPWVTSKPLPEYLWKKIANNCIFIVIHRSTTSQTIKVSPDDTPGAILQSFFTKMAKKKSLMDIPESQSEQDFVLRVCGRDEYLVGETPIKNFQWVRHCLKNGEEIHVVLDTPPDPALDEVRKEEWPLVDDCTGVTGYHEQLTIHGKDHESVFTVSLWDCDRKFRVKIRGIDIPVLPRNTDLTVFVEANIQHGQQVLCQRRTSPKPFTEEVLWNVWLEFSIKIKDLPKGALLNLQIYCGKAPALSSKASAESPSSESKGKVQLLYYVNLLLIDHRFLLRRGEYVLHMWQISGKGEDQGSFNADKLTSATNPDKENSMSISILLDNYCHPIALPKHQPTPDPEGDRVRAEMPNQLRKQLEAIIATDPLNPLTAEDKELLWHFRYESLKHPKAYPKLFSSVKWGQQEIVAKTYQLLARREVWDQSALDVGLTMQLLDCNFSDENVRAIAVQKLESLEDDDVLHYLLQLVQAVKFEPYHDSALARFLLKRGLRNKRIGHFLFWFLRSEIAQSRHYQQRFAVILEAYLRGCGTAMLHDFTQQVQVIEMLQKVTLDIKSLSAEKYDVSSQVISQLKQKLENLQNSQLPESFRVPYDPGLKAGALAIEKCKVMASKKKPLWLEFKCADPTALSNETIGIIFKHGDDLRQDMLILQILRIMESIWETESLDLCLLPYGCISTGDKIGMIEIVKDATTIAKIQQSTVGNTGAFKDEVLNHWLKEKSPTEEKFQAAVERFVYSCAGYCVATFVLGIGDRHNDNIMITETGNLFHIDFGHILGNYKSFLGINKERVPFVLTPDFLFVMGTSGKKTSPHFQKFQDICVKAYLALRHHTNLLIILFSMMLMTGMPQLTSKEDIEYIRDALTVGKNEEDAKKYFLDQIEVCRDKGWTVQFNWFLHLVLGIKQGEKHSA

Compound: COc1ccc2c(c1OC)c(=O)n1c3ccc(O)cc3c3ccnc2c31 [MW01, 5-Hydroxy-10,11-dimethoxy-9H-benzo[c]indolo[3,2,1-ij][1,5]naphthyridin-9-one]
- inhibition at 1 µM (PIK3CG (p11 0 gamma); [1]): 81%
- inhibition at 10 µM (PIK3CG (p11 0 gamma); [2]): 88%
- IC50 (PIK3CG (p11 0 gamma)): ≤ 2000 nM
- inhibition at 1 µM (MAP4K2 (GCK); [1]): 50%
- inhibition at 10 µM (MAP4K2 (GCK); [2]): 77%
- inhibition at 1 µM (IKBKB (IKK beta); [1]): 4%
- inhibition at 10 µM (IKBKB (IKK beta); [2]): 12%

Compound: O=c1c2cc(O)ccc2c2nccc3c4cc(O)ccc4n1c32 [MW01-E10, 5,16-dihydroxy-1,11-diazapentacyclo[10.7.1.0^2,^7.0^8,^20.0^13,^18]icosa-2(7),3,5,8(20),9,11,13(18),14,16-nonaen-19-one]
- inhibition at 10 µM (PIK3CG (p11 0 gamma); [3]): 93%
- inhibition at 10 µM (MAP4K2 (GCK); [4]): 98%
- inhibition at 10 µM (IKBKB (IKK beta); [5]): 31%

Compound: COc1ccc2c(c1)c1ccnc3c4ccnc(OC)c4c(=O)n2c13 [MW01-E14, 5,17-dimethoxy-1,11,16-triazapentacyclo[10.7.1.0^2,^7.0^8,^20.0^13,^18]icosa-2(7),3,5,8(20),9,11,13(18),14,16-nonaen-19-one]
- inhibition at 10 µM (PIK3CG (p11 0 gamma); [3]): 49%
- inhibition at 10 µM (MAP4K2 (GCK); [4]): 81%
- inhibition at 10 µM (IKBKB (IKK beta); [5]): 16%

Compound: COc1ccc2cc3c(N)nn(C(=O)c4cccc(N(C)C)c4)c3nc2c1 [MW05, (3-Amino-7-methoxypyrazolo[3,4-b]quinolin-1-yl)-[3-(dimethylamino)phenyl]methanone]
- inhibition at 1 µM (PIK3CG (p11 0 gamma); [1]): 20%
- inhibition at 10 µM (PIK3CG (p11 0 gamma); [2]): 70%
- IC50 (PIK3CG (p11 0 gamma)): ≤ 2000 nM
- inhibition at 1 µM (MAP4K2 (GCK); [1]): 13%
- inhibition at 10 µM (MAP4K2 (GCK); [2]): 10%
- inhibition at 1 µM (IKBKB (IKK beta); [1]): 6%
- inhibition at 10 µM (IKBKB (IKK beta); [2]): 5%

Compound: COc1ccc2nc3c(cc2c1)c(N)nn3C(=O)c1cccc(N(C)C)c1 [MW05-E2, 1-[3-(dimethylamino)benzoyl]-6-methoxy-1H-pyrazolo[3,4-b]quinolin-3-amine]
- inhibition at 10 µM (PIK3CG (p11 0 gamma); [3]): 2%
- inhibition at 10 µM (MAP4K2 (GCK); [4]): 2%
- inhibition at 10 µM (IKBKB (IKK beta); [5]): 12%

Now from value to molecule:

- inhibition at 10 µM (PIK3CG (p11 0 gamma); [3]): -1%
- inhibition at 10 µM (MAP4K2 (GCK); [4]): 70%
- inhibition at 10 µM (IKBKB (IKK beta); [5]): 10%
Compound: COc1ccc2c(c1)c1ccnc3c4nc(OC)ccc4c(=O)n2c13 [MW01-E6, 5,15-dimethoxy-1,11,14-triazapentacyclo[10.7.1,0^2,7.0^8,^20.0^13,^18]icosa-2(7),3,5,8(20),9,11,13(18),14,16-nonaen-19-one]

- inhibition at 10 µM (PIK3CG (p11 0 gamma); [3]): 99%
- inhibition at 10 µM (MAP4K2 (GCK); [4]): 93%
- inhibition at 10 µM (IKBKB (IKK beta); [5]): 16%
Compound: O=c1c2cnccc2c2nccc3c4cc(O)ccc4n1c32 [MW01-E18, 5-hydroxy-1,11,16-triazapentacyclo[10.7.1.0^2,^7.0^8,^20.0^13,^18]icosa-2(7),3,5,8(20),9,11,13(18),14,16-nonaen-19-one]

Reference: EP4467141A1, “PYRAZOLO-QUINOLINES AS SELECTIVE INHIBITORS OF GENOTOXIC STRESS-INDUCED IKK/NF- KB PATHWAYS FOR CANCER THERAPY” (Max-Delbrück-Centrum für Molekulare Medizin in der …, priority 2023, dated 2024)
